Laboratory results reported in patent US12622910B2, “Inhibitors of Bruton's tyrosine kinase and methods of their use” (Janssen Pharmaceutica NV, priority 2021, dated 2026).

Key:
[1] = Blood-to-plasma concentration ratio; type: in vitro ADME; conditions: rat, fresh blood
[2] = Metabolic stability in hepatocytes; type: in vitro ADME, monkey
Procedure: (§1) Additional Data on Preclinical PK Profile—Protein binding of the compound of Formula (III) was studied using an equilibrium dialysis method in plasma from human, cynomolgus monkey, beagle dog, Sprague Dawley rat, CD-1 mouse, and guinea pig at 0.25, 2.5, and 25 μM. […] In human and monkey, the plasma protein binding was concentration dependent. […] Free fraction of the compound of Formula (III) in liver microsomes from various species ranged from 75.1% to 87.9% at 0.25 mg/mL and from 58.9% to 86.5% at 1.0 mg/mL (Table 17). […] In hepatocytes, the compound of Formula (III) turnover followed a similar trend, with T1/2 ranging from 75.3 minutes in monkey to 278.1 minutes in human.

[3] = Metabolic stability in liver microsomes; type: in vitro ADME, monkey
Procedure: as §1

[4] = Plasma protein binding, equilibrium dialysis; type: in vitro ADME, human
Procedure: as §1

BTK = target: T1, BTK (Rattus norvegicus, UniProt Q5S255); assay: Rat in vivo BTK target engagement (occupancy ELISA in blood); set-up: species or system female Wistar rat; conditions: read-out: BTK target occupancy after 8 and 24 hours
T1 construct: Cell lysates were prepared from the blood samples using cell lysis buffer; from tissue; host or cells: blood of female Wistar rats (cell lysates)
Procedure: In Vivo BTK Engagement—BTK receptor occupancy and plasma concentrations of the Compound of Formula (III) increased in a dose-dependent manner following a single oral dose in rat (FIG. 15). Doses of 2 mg/kg or higher consistently achieved sustained target occupancy after 8 and 24 hours (>75% following a 2 mg/kg dose, ≥88% following a 3 mg/kg dose, and ≥99% following a 10 mg/kg dose). Target occupancy was maintained at 24 h even after parent drug plasma levels decreased, indicating persistent BTK occupancy, a hallmark of the covalent mechanism. Considering that 70% to 80% BTK target engagement for 7 to 8 hours in a chronic dosing regimen is associated with anti-inflammatory activity in rodent efficacy models, 75% target engagement at 7.5 hours was identified as the desired level of target engagement.
BTK Occupancy PK/PD Model—Rat in vivo target engagement—Two studies were conducted in which the compound of Formula (III) formulated in 20% HPCD, was administered orally to female Wistar rats. In study 1, compound of Formula (III) was evaluated at oral doses of 0.3, 1, 3 and 10 mg/kg; in study 2, compound of Formula (III) was evaluated at oral doses of 0.1, 0.3, 1, 2 and 3 mg/kg. (n=4/group for both studies). In both experiments, at assigned time points postdose (0.5, 4, 8 and 24 hr), animals were anesthetized and approximately 140 μL of blood was obtained by retro-orbital bleeding into heparinized tubes. These samples were split into two aliquots, with one aliquot used to measure compound levels by liquid chromatography mass spectrophotometry method and the other aliquot to assess BTK occupancy by a target-site occupancy ELISA.
Cell lysates were prepared from the blood samples using cell lysis buffer (BD Pharmingen™, BD Biosciences). Free BTK protein in each sample is tagged by the addition a biotinylated probe (1 μL of a 25 μM working solution per sample, final concentration 250 nM), which is then captured on the surface of a streptavidin coated microtiter plate and detected by ELISA using an antibody specific for BTK (BD Transduction). […]

[5] = Blood-to-plasma concentration ratio; type: in vitro ADME; conditions: dog, fresh blood
[6] = test system: IL-10 secretion, ABC-DLBCL OCI-LY-10 cells; assay: IL-10 secretion by OCI-LY-10 cells (MesoScale); type: cell-based; conditions: Homo sapiens, OCI-Ly10; 6 independent experiments; read-out: IC50, IL-10 secretion (mean±SEM)
Procedure: In Vitro Activity in DLBCL Cell Lines—NFκB signaling regulates the secretion of multiple cytokines, including interleukin (IL)-6 and IL-10. Secretion of IL-6 and -10 by ABC-DLBCL OCI-LY-10 cells was measured using a MesoScale assay. […] To determine the anti-proliferative activity of the compound of formula (III), several ABC-DLBCL cell lines—OCI-LY-3, OCI-LY-10, TMD8, and HBL-1—were treated for 8 days. […] The OCI-LY-3 cell line, which harbors a CARD11 mutation downstream of BTK in the NF-κB signaling pathway, was completely insensitive to the compound of Formula (III) up to 2 μM. In 2 experiments, OCI-LY-3 cells were insensitive to the compound of Formula (III) at all concentrations up to 10 μM.

T1 sequence (Q5S255 1-660): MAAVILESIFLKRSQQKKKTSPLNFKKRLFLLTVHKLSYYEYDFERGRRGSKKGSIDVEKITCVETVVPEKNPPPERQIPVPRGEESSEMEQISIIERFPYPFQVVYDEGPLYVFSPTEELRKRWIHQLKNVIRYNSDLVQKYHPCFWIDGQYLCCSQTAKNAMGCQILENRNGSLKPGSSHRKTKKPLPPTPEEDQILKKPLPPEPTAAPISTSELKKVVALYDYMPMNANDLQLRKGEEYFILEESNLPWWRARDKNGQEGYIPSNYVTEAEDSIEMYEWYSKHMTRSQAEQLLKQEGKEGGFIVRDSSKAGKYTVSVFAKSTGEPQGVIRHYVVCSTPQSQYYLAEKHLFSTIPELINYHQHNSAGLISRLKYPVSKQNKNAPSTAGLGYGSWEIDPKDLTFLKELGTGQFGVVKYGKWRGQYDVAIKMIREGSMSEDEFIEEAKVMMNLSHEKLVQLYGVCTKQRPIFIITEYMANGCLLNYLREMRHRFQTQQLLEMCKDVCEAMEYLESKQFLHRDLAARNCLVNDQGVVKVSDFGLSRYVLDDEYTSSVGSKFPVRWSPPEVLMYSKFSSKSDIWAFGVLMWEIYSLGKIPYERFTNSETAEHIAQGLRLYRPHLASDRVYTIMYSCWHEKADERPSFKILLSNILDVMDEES

For `C=CC(=O)N[C@H]1CCC[C@H]1NC(=O)c1sc2nccc3c2c1NC(=O)N3c1cnc(CC(C)C)cc1C` (atropisomer, axis not shown) [compound of Formula (III), N-((1R,2S)-2-Acrylamidocyclopentyl)-5-(S)-(6-isobutyl-4-methylpyridin-3-yl)-4-oxo-4,5-dihydro-3H-1-thia-3,5,8-triazaacenaphthylene-2-carboxamide], the blood plasma ratio at 1 μM [1] was 1.37, the “Extraction Ratio, hepatocytes” value [2] was 0.78 and the hepatocyte CLint ([2]; monkey, hepatocytes) was 66.3 µL/min/1e6 cells. For the same compound, the half-life ([2]; monkey, hepatocytes, read-out: T1/2, hepatocytes) was 75.3 min, the “Extraction Ratio, liver microsomes” value ([3]; Monkey) was 0.65 and the microsomal CLint ([3]; monkey, liver microsomes) was 61 µL/min/mg. For the same compound, the half-life ([3]; monkey, liver microsomes, read-out: T1/2, liver microsomes) was 11.4 min, the “% Free in plasma” value ([4]; 2.5 μM) was 3.1% and the fraction unbound at 0.25 μM ([4]; human, plasma, 0.25 μM, read-out: % Free in plasma) was 0.0169. The fraction unbound at 25 μM ([4]; human, plasma, 25 μM, read-out: % Free in plasma) was 0.0463, the receptor occupancy at 2 mg/kg (BTK; single oral 2 mg/kg) was over 75% and the receptor occupancy at 3 mg/kg (BTK; single oral 3 mg/kg) was at least 88%. It also gave a receptor occupancy at 10 mg/kg (BTK; single oral 10 mg/kg) of at least 99%, a blood plasma ratio at 1 μM [5] of 0.75 and an IC50 [6] of 18 ± 7 nM.
